Laboratory results taken from BigSolDB 2.1.

CCOc1nc2cccc(C(=O)OC(C)OC(=O)OC3CCCCC3)c2n1Cc1ccc(-c2ccccc2-c2nn[nH]n2)cc1 (stereo not given)
solubility (mole fraction)
Settings | in 2-butanone | in acetone | in acetonitrile | in ethanol | in isopropanol | in n-propanol
278.15 K | 0.00575 | 0.00383 | 0.00026 | 0.00055 | 0.00026 | 0.00062
283.15 K | 0.00653 | 0.00467 | 0.00033 | 0.00066 | 0.00037 | 0.00079
288.15 K | 0.00749 | 0.00566 | 0.00044 | 0.00086 | 0.00052 | 0.00098
293.15 K | 0.0086 | 0.00673 | 0.00058 | 0.00103 | 0.0007 | 0.00132
298.15 K | 0.01 | 0.00783 | 0.00071 | 0.0013 | 0.00093 | 0.00172
303.15 K | 0.0118 | 0.00946 | 0.00091 | 0.00163 | 0.00128 | 0.00208
308.15 K | 0.0138 | 0.0111 | 0.00127 | 0.00203 | 0.0017 | 0.00283
313.15 K | 0.016 | 0.0133 | 0.00159 | 0.00271 | 0.00221 | 0.00373
318.15 K | 0.019 | 0.0155 | 0.00195 | 0.00355 | 0.00298 | 0.00452
323.15 K | 0.0224 | 0.0182 | 0.00263 | 0.00458 | 0.00391 | 0.0059
328.15 K | 0.0264 | – | 0.00343 | 0.00573 | 0.00526 | 0.00759
333.15 K | 0.031 | – | 0.00442 | 0.00772 | 0.00667 | 0.00977
